Numbers after ± are expanded uncertainties.
Legend:
[1] = 101.33 kPa, Liquid, vibrating tube
[2] = xn = mol fraction of the nth substance listed; conditions: 101.33 kPa, Liquid, vibrating tube

Row | Structure (SMILES) | mass density ([1]; 283.15 K) [kg/m3] | mass density ([1]; 288.15 K) [kg/m3] | mass density ([1]; 293.15 K) [kg/m3] | mass density ([1]; 298.15 K) [kg/m3] | mass density ([1]; 303.14 K) [kg/m3] | mass density ([1]; 308.15 K) [kg/m3] | mass density ([1]; 313.14 K) [kg/m3] | mass density ([1]; 318.14 K) [kg/m3] | mass density ([1]; 323.14 K) [kg/m3] | mass density ([2]; 283.15 K, x2 = 0) [kg/m3] | mass density ([2]; 318.14 K, x2 = 0) [kg/m3] | mass density ([2]; 323.14 K, x2 = 0) [kg/m3] | also measured
1 | CC(C)=O [acetone] | 801.669 ± 0.14 | 796.037 ± 0.14 | 790.355 ± 0.14 | 784.638 ± 0.14 | 778.876 ± 0.14 | 773.065 ± 0.14 | 767.205 ± 0.14 | 761.288 ± 0.14 | 755.314 ± 0.14 | – | – | – | –
2 | CC(C)=O [acetone] + CCC(=O)O | – | – | – | – | – | – | – | – | – | – | – | – | mass density ([2]; 283.15 K, x1 = 1): 801.669 ± 0.14 kg/m3; mass density ([2]; 288.15 K, x1 = 1): 796.037 ± 0.14 kg/m3; mass density ([2]; 293.15 K, x1 = 1): 790.355 ± 0.14 kg/m3; mass density ([2]; 298.15 K, x1 = 1): 784.638 ± 0.14 kg/m3; mass density ([2]; 303.14 K, x1 = 1): 778.876 ± 0.14 kg/m3; mass density ([2]; 308.15 K, x1 = 1): 773.065 ± 0.14 kg/m3; mass density ([2]; 313.14 K, x1 = 1): 767.205 ± 0.14 kg/m3; mass density ([2]; 318.14 K, x1 = 1): 761.288 ± 0.14 kg/m3; mass density ([2]; 323.14 K, x1 = 1): 755.314 ± 0.14 kg/m3
3 | CCC(=O)O [propanoic acid] | 1004.11 ± 0.51 | 998.688 ± 0.51 | 993.261 ± 0.51 | 987.847 ± 0.51 | 982.44 ± 0.5 | 977.037 ± 0.5 | 971.635 ± 0.5 | 966.24 ± 0.49 | – | – | – | – | mass density ([1]; 323.15 K): 960.843 ± 0.49 kg/m3
4 | O [water] | 999.691 ± 0.082 | – | – | – | – | – | – | 990.13 ± 0.084 | 988.003 ± 0.084 | – | – | – | –
5 | O [water] + CC(C)=O | – | – | – | – | – | – | – | – | – | 999.691 ± 0.082 | 990.13 ± 0.084 | 988.003 ± 0.084 | –
6 | O [water] + CCC(=O)O | – | – | – | – | – | – | – | – | – | 999.691 ± 0.082 | 990.13 ± 0.084 | 988.003 ± 0.084 | –

From the NIST ThermoML archive (doi:10.1021/je030102f)
